Experimental data reported in patent US9034884B2, “Heterocyclic-substituted pyrrolopyridines and pyrrolopyrimidines as JAK inhibitors” (Incyte Corporation, priority 2010, dated 2015).

Experiments:
[1] = biological target: T1, human JAK1 (a.a. 837-1142) catalytic domain (Homo sapiens, UniProt P23458); experiment: In vitro JAK kinase assay (HTRF, phosphorylation of biotinylated peptide), JAK1; format: biochemical; details: ATP 1 mM
T1 construct: human JAK1 (a.a. 837-1142); His tag (N); made in house; host or cells: insect cells (baculovirus)
Protocol: Compounds herein were tested for inhibitory activity of JAK targets according to the following in vitro assay described in Park et al., Analytical Biochemistry 1999, 269, 94-104. The catalytic domains of human JAK1 (a.a. 837-1142) and JAK2 (a.a. 828-1132) with an N-terminal His tag were expressed using baculovirus in insect cells and purified. The catalytic activity of JAK1 and JAK2 was assayed by measuring the phosphorylation of a biotinylated peptide. The phosphorylated peptide was detected by homogenous time resolved fluorescence (HTRF). […] For the 1 mM IC50 measurements, ATP concentration in the reactions was 1 mM. Reactions were carried out at room temperature for 1 hour and then stopped with 20 μL 45 mM EDTA, 300 nM SA-APC, 6 nM Eu-Py20 in assay buffer (Perkin Elmer, Boston, Mass.). Binding to the Europium labeled antibody took place for 40 minutes and HTRF signal was measured on a Fusion plate reader (Perkin Elmer, Boston, Mass.). […] Data is indicated as ranges, wherein “+” is less than 5 nM; “++” is 5 nM to 25 nM; “+++” is greater than 25 nM to 100 nM; and “++++” is greater than 100 nM.

[2] = biological target: T2, JAK2 (a.a. 828-1132) catalytic domain (Homo sapiens, UniProt O60674); experiment: In vitro JAK kinase assay (HTRF, phosphorylation of biotinylated peptide), JAK2; format: biochemical; details: ATP 1 mM
T2 construct: JAK2 (a.a. 828-1132); His tag (N); made in house; host or cells: insect cells (baculovirus)
Protocol: Compounds herein were tested for inhibitory activity of JAK targets according to the following in vitro assay described in Park et al., Analytical Biochemistry 1999, 269, 94-104. The catalytic domains of human JAK1 (a.a. 837-1142) and JAK2 (a.a. 828-1132) with an N-terminal His tag were expressed using baculovirus in insect cells and purified. The catalytic activity of JAK1 and JAK2 was assayed by measuring the phosphorylation of a biotinylated peptide. The phosphorylated peptide was detected by homogenous time resolved fluorescence (HTRF). […] For the 1 mM IC50 measurements, ATP concentration in the reactions was 1 mM. Reactions were carried out at room temperature for 1 hour and then stopped with 20 μL 45 mM EDTA, 300 nM SA-APC, 6 nM Eu-Py20 in assay buffer (Perkin Elmer, Boston, Mass.). Binding to the Europium labeled antibody took place for 40 minutes and HTRF signal was measured on a Fusion plate reader (Perkin Elmer, Boston, Mass.). See Tables A and B for data related to compounds of the invention (at 1 mM). Data is indicated as ranges, wherein “+” is less than 5 nM; “++” is 5 nM to 25 nM; “+++” is greater than 25 nM to 100 nM; and “++++” is greater than 100 nM.

T1 sequence (P23458 849-1154): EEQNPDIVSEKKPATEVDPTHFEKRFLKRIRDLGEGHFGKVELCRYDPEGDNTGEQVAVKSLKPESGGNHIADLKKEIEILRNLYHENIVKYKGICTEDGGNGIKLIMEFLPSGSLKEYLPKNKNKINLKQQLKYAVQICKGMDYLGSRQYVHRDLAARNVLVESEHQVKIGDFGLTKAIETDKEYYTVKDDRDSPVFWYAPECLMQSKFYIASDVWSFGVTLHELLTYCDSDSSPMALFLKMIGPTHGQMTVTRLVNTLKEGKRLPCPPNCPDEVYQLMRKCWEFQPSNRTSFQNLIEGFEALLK
T2 sequence (O60674 828-1132): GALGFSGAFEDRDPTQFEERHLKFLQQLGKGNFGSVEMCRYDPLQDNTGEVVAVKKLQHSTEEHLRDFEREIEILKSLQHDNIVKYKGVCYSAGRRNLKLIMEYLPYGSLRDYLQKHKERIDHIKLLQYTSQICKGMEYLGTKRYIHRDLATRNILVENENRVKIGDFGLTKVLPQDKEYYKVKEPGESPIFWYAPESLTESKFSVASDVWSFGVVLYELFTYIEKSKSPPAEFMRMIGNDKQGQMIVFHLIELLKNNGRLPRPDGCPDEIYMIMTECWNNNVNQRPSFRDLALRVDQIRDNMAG

Structure (SMILES) | IC50 ([1]; Table A) | IC50 ([2]; Table A) | IC50 ([1]; Table B) | IC50 ([2]; Table B)
CC(C)NC(=O)c1cc(F)cc(OC2CCN(CC(CC#N)n3cc(-c4ncnc5[nH]ccc45)cn3)CC2)c1 (stereo not shown) [Example 11, 3-[(1-{3-Cyano-2-[4-(7H-pyrrolo[2,3-d]pyrimidin-4-yl)-1H-pyrazol-1-yl]propyl}piperidin-4-yl)oxy]-5-fluoro-N-isopropylbenzamide tris(trifluoroacetate)] | < 5 nM | 5 to 25 nM | – | –
C[C@H]1CCCN1Cc1cc(F)cc(OC2CCN(CC(CC#N)n3cc(-c4ncnc5[nH]ccc45)cn3)CC2)c1 (stereo partly drawn) [Example 29, 4-[4-(3-fluoro-5-{[(2S)-2-methylpyrrolidin-1-yl]methyl}phenoxy)piperidin-1-yl]-3-[4-(7H-pyrrolo[2,3-d]pyrimidin-4-yl)-1H-pyrazol-1-yl]butanenitrile] | < 5 nM | 25 to 100 nM | – | –
N#CCC(CN1CCC(Oc2cc(F)cc(C(=O)N3CCOCC3)c2)CC1)n1cc(-c2ncnc3[nH]ccc23)cn1 (stereo not shown) [Example 18, 4-{4-[3-Fluoro-5-(morpholin-4-ylcarbonyl)phenoxy]piperidin-1-yl}-3-[4-(7H-pyrrolo[2,3-d]pyrimidin-4-yl)-1H-pyrazol-1-yl]butanenitrile] | < 5 nM | 5 to 25 nM | – | –
N#CCC(CN1CCC(Oc2cc(F)cc(CN3CCOCC3)c2)CC1)n1cc(-c2ncnc3[nH]ccc23)cn1 (stereo not shown) [Example 26, 4-{4-[3-fluoro-5-(morpholin-4-ylmethyl)phenoxy]piperidin-1-yl}-3-[4-(7H-pyrrolo[2,3-d]pyrimidin-4-yl)-1H-pyrazol-1-yl]butanenitrile] | 5 to 25 nM | > 100 nM | – | –
N#CCC(CN1CCC(Oc2cc(F)cc(CN3CCC(F)(F)C3)c2)CC1)n1cc(-c2ncnc3[nH]ccc23)cn1 (stereo not shown) [Example 27, 4-(4-{3-[(3,3-difluoropyrrolidin-1-yl)methyl]-5-fluorophenoxy}piperidin-1-yl)-3-[4-(7H-pyrrolo[2,3-d]pyrimidin-4-yl)-1H-pyrazol-1-yl]butanenitrile] | 5 to 25 nM | > 100 nM | – | –
N#CCC(CN1CCC(Oc2cc(F)cc(C(=O)NCCC(N)=O)c2)CC1)n1cc(-c2ncnc3[nH]ccc23)cn1 (stereo not shown) [Example 14, N-(3-Amino-3-oxopropyl)-3-[1(1-{3-cyano-2-[4-(7H-pyrrolo[2,3-d]pyrimidin-4-yl)-1H-pyrazol-1-yl]propyl}piperidin-4-yl)oxy]-5-fluorobenzamide tris(trifluoroacetate)] | < 5 nM | 5 to 25 nM | – | –
N#CCC(CN1CCC(Oc2cc(F)cc(CN3CCC3)c2)CC1)n1cc(-c2ncnc3[nH]ccc23)cn1 (stereo not shown) [Example 22] | < 5 nM | 25 to 100 nM | – | –
N#CCC(CN1CCC(Oc2cc(F)cc(F)c2F)CC1)n1cc(-c2ncnc3[nH]ccc23)cn1 (stereo not shown) [Example 5, 3-[4-(7H-Pyrrolo[2,3-d]pyrimidin-4-yl)-1H-pyrazol-1-yl]-4-[4-(2,3,5-trifluorophenoxy)piperidin-1-yl]butanenitrile tris(trifluoroacetate)] | < 5 nM | 5 to 25 nM | – | –
N#CCC(CN1CCC(Oc2cc(F)cc(C(=O)N3CCCC3)c2)CC1)n1cc(-c2ncnc3[nH]ccc23)cn1 (stereo not shown) [Example 13, 4-{4-[3-Fluoro-5-(pyrrolidin-1-ylcarbonyl)phenoxy]piperidin-1-yl}-3-[4-(7H-pyrrolo[2,3-d]pyrimidin-4-yl)-1H-pyrazol-1-yl]butanenitrile tris(trifluoroacetate)] | < 5 nM | 5 to 25 nM | – | –
N#CCC(CN1CCC(Oc2cc(F)cc(C(=O)N3CCCCC3)c2)CC1)n1cc(-c2ncnc3[nH]ccc23)cn1 (stereo not shown) [Example 17, 4-{4-[3-Fluoro-5-(piperidin-1-ylcarbonyl)phenoxy]piperidin-1-yl}-3-[4-(7H-pyrrolo[2,3-d]pyrimidin-4-yl)-1H-pyrazol-1-yl]butanenitrile] | < 5 nM | 5 to 25 nM | – | –
N#CCC(CN1CCC(Oc2cc(F)cc(C(=O)NCCN3CCOCC3)c2)CC1)n1cc(-c2ncnc3[nH]ccc23)cn1 (stereo not shown) [Example 16, 3-[(1-{3-Cyano-2-[4-(7H-pyrrolo[2,3-d]pyrimidin-4-yl)-1H-pyrazol-1-yl]propyl}piperidin-4-yl)oxy]-5-fluoro-N-(2-morpholin-4-ylethyl)benzamide tris(trifluoroacetate)] | < 5 nM | 5 to 25 nM | – | –
N#CCC(CN1CCC(Oc2cc(F)cc(CNC3CCC3)c2)CC1)n1cc(-c2ncnc3[nH]ccc23)cn1 (stereo not shown) [Example 23, 4-(4-{3-[(cyclobutylamino)methyl]-5-fluorophenoxy}piperidin-1-yl)-3-[4-(7H-pyrrolo[2,3-d]pyrimidin-4-yl)-1H-pyrazol-1-yl]butanenitrile tetrakis(trifluoroacetate)] | 5 to 25 nM | 25 to 100 nM | – | –
COCCNCc1cc(F)cc(OC2CCN(CC(CC#N)n3cc(-c4ncnc5[nH]ccc45)cn3)CC2)c1 (stereo not shown) [Example 30, 4-[4-(3-fluoro-5-{[(2-methoxyethyl)amino]methyl}phenoxy)piperidin-1-yl]-3-[4-(7H-pyrrolo[2,3-d]pyrimidin-4-yl)-1H-pyrazol-1-yl]butanenitrile] | 5 to 25 nM | 25 to 100 nM | – | –
N#CCC(CN1CCC(Oc2cc(F)c(F)c(F)c2)CC1)n1cc(-c2ncnc3[nH]ccc23)cn1 (stereo not shown) [Example 4, 3-[4-(7H-Pyrrolo[2,3-d]pyrimidin-4-yl)-1H-pyrazol-1-yl]-4-[4-(3,4,5-trifluorophenoxy)piperidin-1-yl]butanenitrile tris(trifluoroacetate)] | 5 to 25 nM | 25 to 100 nM | – | –
CN(C)Cc1cc(F)cc(OC2CCN(CC(CC#N)n3cc(-c4ncnc5[nH]ccc45)cn3)CC2)c1 (single isomer, unassigned) [Example 20 Enantiomer 2, 4-(4-{3-[(Dimethylamino)methyl]-5-fluorophenoxy}piperidin-1-yl)-3-[4-(7H-pyrrolo[2,3-d]pyrimidin-4-yl)-1H-pyrazol-1-yl]butanenitrile (chiral)] | – | 5 to 25 nM | – | –

Results, then the compound that gave them:

IC50 ([1]; Table A) | IC50 ([2]; Table A) | IC50 ([1]; Table B) | IC50 ([2]; Table B) | Structure (SMILES)
< 5 nM | 25 to 100 nM | – | – | N#CCC(CN1CCC(Oc2cc(F)cc(C#N)c2)CC1)n1cc(-c2ncnc3[nH]ccc23)cn1 (stereo not shown) [Example 6, 3-[(1-{3-Cyano-2-[4-(7H-pyrrolo[2,3-d]pyrimidin-4-yl)-1H-pyrazol-1-yl]propyl}piperidin-4-yl)oxy]-5-fluorobenzonitrile tris(trifluoroacetate)]
– | – | < 5 nM | 25 to 100 nM | N#CCC(CN1CCC(Oc2cc(F)cc(C#N)c2)C(F)C1)n1cc(-c2ncnc3[nH]ccc23)cn1 (single isomer, unassigned) [Example 31 diastereomer 2, 3-[(1-{3-Cyano-2-[4-(7H-pyrrolo[2,3-d]pyrimidin-4-yl)-1H-pyrazol-1-yl]propyl}-3-fluoropiperidin-4-yl)oxy]-5-fluorobenzonitrile (two diastereomers)]
< 5 nM | 5 to 25 nM | – | – | CNC(=O)c1cc(F)cc(OC2CCN(CC(CC#N)n3cc(-c4ncnc5[nH]ccc45)cn3)CC2)c1 (stereo not shown) [Example 7, 3-[(1-{3-Cyano-2-[4-(7H-pyrrolo[2,3-d]pyrimidin-4-yl)-1H-pyrazol-1-yl]propyl}piperidin-4-yl)oxy]-5-fluoro-N-methylbenzamide tris(trifluoroacetate)]
– | – | 5 to 25 nM | 25 to 100 nM | N#CCC(CN1CCC(Oc2cc(F)cc(C#N)c2)C(F)C1)n1cc(-c2ncnc3[nH]ccc23)cn1 (single isomer, unassigned) [Example 31 diastereomer 1, 3-[(1-{3-Cyano-2-[4-(7H-pyrrolo[2,3-d]pyrimidin-4-yl)-1H-pyrazol-1-yl]propyl}-3-fluoropiperidin-4-yl)oxy]-5-fluorobenzonitrile (two diastereomers)]
5 to 25 nM | > 100 nM | – | – | N#CCC(CN1CCC(Oc2cc(F)cc(C(F)(F)F)c2)CC1)n1cc(-c2ncnc3[nH]ccc23)cn1 (stereo not shown) [Example 3, 4-{4-[3-Fluoro-5-(trifluoromethyl)phenoxy]piperidin-1-yl}-3-[4-(7H-pyrrolo[2,3-d]pyrimidin-4-yl)-1H-pyrazol-1-yl]butanenitrile tris(trifluoroacetate)]
– | – | < 5 nM | 5 to 25 nM | C[C@@H]1CCCN1Cc1cc(F)cc(OC2CCN(CC(CC#N)n3cc(-c4ncnc5[nH]ccc45)cn3)CC2F)c1 (single isomer, unassigned) [Example 32 diastereomer 2]
– | – | < 5 nM | 25 to 100 nM | C[C@H]1CCCN1Cc1cc(F)cc(OC2CCN(CC(CC#N)n3cc(-c4ncnc5[nH]ccc45)cn3)CC2F)c1 (single isomer, unassigned) [Example 33 diastereomer 2]
